In patent publication US5488106A:
Entries after “also recorded” stand apart in the source; their conditions may differ. Counter-ions that a name gives are not always drawn. Like-named read-outs stand apart in the source and are kept apart here. Blank lines part the entries; values can stand above or below the molecule they belong to.

What was measured:
[1] = molecular target: PC1 (Penase) (Staphylococcus aureus, UniProt P00807); assay: Spectrophotometric inhibition with 10 minute preincubation, nitrocefin substrate; assay type: biochemical
[2] = molecular target: β-lactamase Tal 3636 CcrA (Bacteroides fragilis, UniProt P25910); assay: biochemical; assay type: biochemical
Procedure: Representative compounds of the present invention are also tested to determine inhibition of an isolated metallo enzyme Group 3, the β-lactamase Tal 3636 CcrA. […] In the CI assay, enzyme is added last to a mixture of inhibitor and buffer. In the TDI assay, nitrocefin is added last to a mixture of enzyme and inhibitor that had been incubating for approximately 7 minutes.

[3] = molecular target: metallo-β-lactamase (Bacteroides fragilis, UniProt P25910); assay: Long term inactivation of the metallo-β-lactamase, residual activity on nitrocefin; assay type: biochemical; conditions: for remaining activity at 8 µM: 42 s, 8 μM inhibitor, after 0.7 minutes, read-out: control activity of metallo-β-lactamase remaining
Procedure: To test for long term inactivation of the metallo-β-lactamase, the inhibitors are mixed with enzyme and incubated overnight. Enzyme activity is tested for at periodic intervals by diluting the enzyme-inhibitor mixture into nitrocefin and comparing the enzymatic activity against that of an enzyme incubated only in assay broth. […].

[4] = molecular target: CcrA (Metallo) (Bacteroides fragilis, UniProt P25910); assay: Spectrophotometric inhibition with 10 minute preincubation, nitrocefin substrate; assay type: biochemical; conditions: for IC50: 10 minute preincubation, 25° C.
[5] = molecular target: P99 (Cephase) (Enterobacter cloacae, UniProt P05364); assay: as above; assay type: biochemical; conditions: for IC50: 10 minute preincubation, 25° C.
[6] = system: E. coli strains containing β-lactamases; assay: Microbiological testing with piperacillin, β-lactamase-containing strains (summary in words); conditions: β-lactamase-producing strains
[7] = system: E. coli 300; assay: MIC of piperacillin, broth serial two-fold dilutions, alone or 1:1 with inhibitor; conditions: piperacillin alone
[8] = system: E. coli 300 + P99 (cephase); assay: as above; conditions: piperacillin alone
[9] = system: E. coli 300 + CcrA (metallo-enzyme); assay: as above; conditions: piperacillin alone
[10] = system: E. cloacae + P99; assay: as above; conditions: piperacillin alone
[11] = system: E. coli + TEM-1; assay: as above; conditions: piperacillin alone
[12] = molecular target: TEM-2 (Bd Spectrum) (Escherichia coli, UniProt P62593, Q37K); assay type: biochemical; conditions: Table III
[13] = CI: enzyme added last, 0.010M HEPES, pH 7.4, nitrocefin 100 μg/ml, read-out: IC50 CI HEPES
[14] = CI: enzyme added last, 0.05M phosphate buffer, pH 7.0, nitrocefin 100 μg/ml, read-out: IC50 CI PHOSPHATE
[15] = TDI: approximately 7 minutes incubation, nitrocefin added last, 0.010M HEPES, pH 7.4, read-out: IC50 TDI HEPES
[16] = TDI: approximately 7 minutes incubation, nitrocefin added last, 0.05M phosphate buffer, pH 7.0, read-out: IC50 TDI PHOSPHATE
[17] = 10 minute preincubation, 25° C., read-out: IC50 PC1 (Penase)
[18] = TDI: approximately 7 minutes incubation, nitrocefin added last, 0.010M HEPES, pH 7.4, 7 min, read-out: IC50 TDI HEPES
[19] = TDI: approximately 7 minutes incubation, nitrocefin added last, 0.05M phosphate buffer, pH 7.0, 7 min, read-out: IC50 TDI PHOSPHATE

Structure (SMILES): CC1(C)[C@H](C(=O)O)N2C(=O)C[C@H]2S1(=O)=O [Sulbactam, sulbactam, reference compound]
- IC50 [1]: 0.08 µM

Structure (SMILES): CC(=O)OC(C1CC(c2ccc(C)cc2)=NO1)[C@@H]1C(=O)N2[C@@H](C(=O)O)C(C)(C)S(=O)(=O)[C@H]12 (stereo partly drawn) [Example 10, 4-Thia-1-azabicyclo[3.2,0]heptane-2-carboxylic acid, 6-[(acetyloxy)[4,5-dihydro-3-(4-methylphenyl)-5-isoxazolyl]methyl]-3,3-dimethyl-7-oxo-, sodium salt, 4,4-dioxide, [2S-(2α, 5α, 6β)]-]
- IC50 [2, 13]: 100 µM
- IC50 [2, 14]: 210 µM
- IC50 [2, 15]: 3.9 µM
- IC50 [2, 16]: 3.2 µM
- remaining activity at 8 µM [3]: 45%
- enzyme activity lost ([3]; after overnight incubation): > 99%
- IC50 [4]: 16 µM
- IC50 [1, 17]: 8 µM
- IC50 [5]: 2.4 µM
- Microbiological activity / effect on MICs of piperacillin (in words) [6]: lowers the MICs of piperacillin for all the E. coli strains containing β-lactamases

Structure (SMILES): CCN1CCN(C(=O)N[C@@H](C(=O)N[C@@H]2C(=O)N3[C@@H]2SC(C)(C)[C@@H]3C(=O)O)c2ccccc2)C(=O)C1=O [Piperacillin, piperacillin]
- Minimum Inhibitory Concentration of Piperacillin [7]: 1 µg/mL
- Minimum Inhibitory Concentration of Piperacillin [8]: 16 µg/mL
- Minimum Inhibitory Concentration of Piperacillin [9]: 4 µg/mL
- Minimum Inhibitory Concentration of Piperacillin [10]: 128 µg/mL
- Minimum Inhibitory Concentration of Piperacillin [11]: > 1024 µg/mL
- Microbiological activity / effect on MICs of piperacillin (in words) [6]: decreased microbiological activity (increased MICs) in E. coli strains that had β-lactamases introduced into them

- IC50 [2, 13]: 48 µM
- IC50 [2, 14]: 33 µM
- IC50 [2, 15]: 3.5 µM
- IC50 [2, 16]: 9.6 µM
Structure (SMILES): CC1(C)[C@H](C(=O)O)N2C(=O)[C@@H](CC3CC(c4ccsc4)=NO3)[C@H]2S1(=O)=O (single isomer, unassigned) [Example 14, 4-Thia-1-azabicyclo[3.2.0.]heptane-2-carboxylic acid, 6-[[4,5-dihydro-3-(3-thienyl)-5-isoxazolyl]methyl]-3,3-dimethyl-7-oxo-, 4,4-dioxide, sodium salt, [2S-[2α, 5α, 6β(R* or S*)]]-]

- IC50 [2, 13]: > 250 µM
- IC50 [2, 14]: > 250 µM
- IC50 [2, 15]: 77 µM
- IC50 [2, 16]: 120 µM
Structure (SMILES): CCC1=NOC(CC2C(=O)N3C(C(=O)O)C(C)(C)S(=O)(=O)C23)C1 (single isomer, unassigned) [Example 12]

Structure (SMILES): Cc1ccc(C2=NOC(C[C@@H]3C(=O)N4[C@@H](C(=O)O)C(C)(C)S(=O)(=O)[C@H]34)C2)cc1 (stereo partly drawn) [Example 5, 4-Thia-1-azabicyclo[3.2.0.]heptane-2-carboxylic acid, 6-[[4,5-dihydro-3-(4-methylphenyl)-5-isoxazolyl]methyl]-3,3-dimethyl-7-oxo-, sodium salt, 4,4-dioxide, [2R-[2α,5α,6β(S*)]]-]
- IC50 [2, 13]: 27 µM
- IC50 [2, 14]: 68 µM
- IC50 [2, 18]: 2 µM
- IC50 [2, 19]: 6.9 µM

- IC50 [2, 13]: 18 µM
- IC50 [2, 14]: 48 µM
- IC50 [2, 15]: 2.4 µM
- IC50 [2, 16]: 6 µM
Structure (SMILES): CC1(C)[C@H](C(=O)O)N2C(=O)[C@@H](CC3CC(Br)=NO3)[C@H]2S1(=O)=O (single isomer, unassigned) [Example 16, 4-Thia-1-azabicyclo[3.2.0]heptane-2-carboxylic acid, 6-[(3-bromo-4,5-dihydro-5-isoxazolyl)methyl]-3,3-dimethyl-7-oxo-, 4,4-dioxide, sodium salt, [2S-[2α,5α,6β(R* or S*)]]-]

Structure (SMILES): C[C@]1(Cn2ccnn2)[C@H](C(=O)O)N2C(=O)C[C@H]2S1(=O)=O [Tazobactam, tazobactam, reference compound]
- IC50 [1]: 0.032 µM

Structure (SMILES): Cc1ccc(C2=NOC(C[C@@H]3C(=O)N4[C@@H](C(=O)O)C(C)(C)S(=O)(=O)[C@H]34)C2)cc1 (stereo partly drawn) [Example 4, 4-Thia-1-azabicyclo[3.2.0]heptane-2-carboxylic acid, 6-[[4,5-dihydro-3-(4-methylphenyl)-5-isoxazolyl]-methyl]-3,3-dimethyl-7-oxo-, sodium salt, 4,4-dioxide, [2R-[2α,5α,6β(R*)]]-]
- IC50 [2, 13]: 9.7 µM
- IC50 [2, 14]: 16 µM
- IC50 [2, 18]: 1.3 µM
- IC50 [2, 19]: 2 µM
- remaining activity at 8 µM [3]: 44%
- metalloenzyme activity recovered ([3]; after overnight incubation): 71%
- IC50 [4]: 0.65 µM
- Inhibition of Group 3 metallo-β-lactamases (in words) ([4]; Table III): inhibited about equally
- IC50 [1, 17]: 0.72 µM
- Inhibition of PC1 Group 2a penicillinase (in words) ([1]; Table III): inhibited about equally
- Inhibition of 2b broad spectrum β-lactamase (in words) [12]: inhibited about equally
- IC50 [5]: 0.0028 µM
- Inhibition of P99 Group 1 cephalosporinase (in words) ([5]; Table III): very potent inhibitor of the P99 Group 1 cephalosporinase
- Microbiological activity / effect on MICs of piperacillin (in words) [6]: lowers the MICs for all the β-lactamases-producing strains; also recorded: more potent in vitro activity against the P99 cephase than the product of Example 10
